US10681912B2, “Dispersion solution containing antibacterial ultrafine metal particles and method of producing the same” (TOYO SEIKAN GROUP HOLDINGS, LTD., priority 2013, dated 2020)

Test: SP values (solubility parameter)
Assay type: physicochemical
Details: δ=(E/V)^1/2
Source text: The SP value has the same meaning as the solubility parameter, and serves as a rough indication of mixing property between the liquids. If the cohesive energy is denoted by E and the molar volume by V, then the SP value δ is given by δ=(E/V)^1/2.

With `CC(=O)CC(C)C` [Methylisobutyl ketone] as the molecule, how does the “SP Value” read?
Its value is 8.7.
